We go through six molecules from patent US20250215029A1 (Recludix Pharma, Inc., priority 2022, published 2025).

The assay concerns the target T1, pY641-STAT6 in PBMC (Homo sapiens, UniProt P42226).
T1 construct: Cryopreserved Peripheral Blood Mononuclear Cells (PBMC) are from AllCells; host or cells: cryopreserved PBMC
T1 sequence (P42226 1-847): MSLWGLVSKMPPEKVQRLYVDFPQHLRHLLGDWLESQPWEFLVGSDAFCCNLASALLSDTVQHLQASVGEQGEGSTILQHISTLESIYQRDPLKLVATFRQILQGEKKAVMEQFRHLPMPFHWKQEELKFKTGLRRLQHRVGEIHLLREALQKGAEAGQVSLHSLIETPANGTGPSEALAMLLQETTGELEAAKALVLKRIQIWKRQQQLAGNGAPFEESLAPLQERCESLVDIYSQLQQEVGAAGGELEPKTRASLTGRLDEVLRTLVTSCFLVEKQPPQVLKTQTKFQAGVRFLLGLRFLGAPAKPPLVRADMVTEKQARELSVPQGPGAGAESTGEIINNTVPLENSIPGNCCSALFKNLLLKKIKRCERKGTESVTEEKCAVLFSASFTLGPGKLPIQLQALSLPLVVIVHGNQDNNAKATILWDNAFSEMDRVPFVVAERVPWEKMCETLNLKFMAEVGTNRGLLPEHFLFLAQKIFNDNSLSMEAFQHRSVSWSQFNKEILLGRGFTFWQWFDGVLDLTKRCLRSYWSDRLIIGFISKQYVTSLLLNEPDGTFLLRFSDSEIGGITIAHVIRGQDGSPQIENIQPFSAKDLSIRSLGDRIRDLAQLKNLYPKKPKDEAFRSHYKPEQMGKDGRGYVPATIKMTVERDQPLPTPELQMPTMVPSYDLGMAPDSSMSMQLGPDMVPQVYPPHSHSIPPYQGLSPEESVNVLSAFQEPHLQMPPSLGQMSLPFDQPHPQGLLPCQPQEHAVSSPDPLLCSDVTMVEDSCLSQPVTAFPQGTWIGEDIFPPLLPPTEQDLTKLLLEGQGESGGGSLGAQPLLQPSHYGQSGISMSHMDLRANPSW
Kind of assay: MSD-pSTAT-PBMC Assay (pSTAT6, IL-4 stimulated). As to conditions: STAT6, PBMC, compound 3 hrs, then 1 ng/mL IL-4 for 10 min; Table 115. The assay is classed as cell-based. In short, it runs like this:
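PBMC (human, cryopreserved, overnight recovery) + cpd 3 hrs → IL-6 10 ng/mL (STAT3) or IL-4 1 ng/mL (STAT6) ×10 min → lysis with protease/phosphatase inhibitors → MSD capture/phospho detection. IC50, variable slope, DMSO-normalized.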
Regarding `CCCOC(=O)[C@H](C)NP(=O)(Oc1ccccc1)[C@H](F)c1ccc2sc(C(=O)N[C@H]3C[C@H](C)C[C@H]4CC[C@@H](C(=O)N5C[C@H](c6ccccc6)[C@@H](C#N)C56CC6)N4C3=O)cc2c1` (stereo partly drawn) [Compound 352, propyl (((S)-(2-(((3S,6S,8S,9aR)-3-((6S,7R)-7-cyano-6-phenyl-4-azaspiro[2.4]heptane-4-carbonyl)-8-methyl-5-oxooctahydro-1H-pyrrolo[1,2-a]azepin-6-yl)carbamoyl)benzo [b]thiophen-5-yl)fluoromethyl) (phenoxy)phosphoryl)-L-alaninate], the IC50 – broadly, the concentration needed to halve the response being measured – is < 100 nM.

As to `CCCOC(=O)[C@H](C)NP(=O)(Oc1ccccc1)[C@@H](F)c1ccc2sc(C(=O)N[C@H]3C[C@@H](C)C[C@H]4CC[C@@H](C(=O)N5C[C@@H](c6cccnc6)CC56CC6)N4C3=O)cc2c1` (stereo partly drawn) [Compound 353, propyl (((R)-fluoro(2-(((3S,6S,8R,9aR)-8-methyl-5-oxo-3-((R)-6-(pyridin-3-yl)-4-azaspiro[2.4]heptane-4-carbonyl)octahydro-1H-pyrrolo[1,2-a]azepin-6-yl)carbamoyl)benzo [b]thiophen-5-yl)methyl)(phenoxy)phosphoryl)-L-alaninate], the IC50 was < 100 nM.

Consider `C[C@H](NP(=O)(Oc1ccccc1)[C@@H](F)c1ccc2sc(C(=O)N[C@H]3CCC[C@H]4CC[C@@H](C(=O)N5C[C@@H](c6cccnc6)CC56CC6)N4C3=O)cc2c1)C(=O)OCc1nnnn1C` (stereo partly drawn) [Compound 356, (1-methyl-1H-tetrazol-5-yl)methyl (((R)-fluoro(2-(((3S,6S,9aS)-5-oxo-3-((R)-6-(pyridin-3-yl)-4-azaspiro[2.4]heptane-4-carbonyl)octahydro-1H-pyrrolo[1,2-a]azepin-6-yl)carbamoyl)benzo [b]thiophen-5-yl)methyl)(phenoxy)phosphoryl)-L-alaninate], for which the IC50 is 100 to 1000 nM. As to `CCCOC(=O)[C@H](C)NP(=O)(Oc1cccc(OCCOC)c1)[C@@H](F)c1ccc2sc(C(=O)N[C@H]3CCC[C@H]4CC[C@@H](C(=O)N5C[C@@H](c6cccnc6)CC56CC6)N4C3=O)cc2c1` (stereo partly drawn) [Compound 357, propyl (((R)-fluoro(2-(((3S,6S,9aS)-5-oxo-3-((R)-6-(pyridin-3-yl)-4-azaspiro[2.4]heptane-4-carbonyl)octahydro-1H-pyrrolo[1,2-a]azepin-6-yl)carbamoyl)benzo [b]thiophen-5-yl)methyl)(3-(2-methoxyethoxy)phenoxy)phosphoryl)-L-alaninate], the IC50 was < 100 nM.

For `COC(C)(C)COC(=O)[C@H](C)NP(=O)(Oc1ccccc1)[C@@H](F)c1ccc2sc(C(=O)N[C@H]3CCCC[C@H]4CC[C@@H](C(=O)N5C[C@@H](c6cccnc6)CC56CC6)N4C3=O)cc2c1` (stereo partly drawn) [Compound 358, 2-methoxy-2-methylpropyl (((R)-fluoro(2-(((3S,6S,10aS)-5-oxo-3-((R)-6-(pyridin-3-yl)-4-azaspiro[2.4]heptane-4-carbonyl)decahydropyrrolo[1,2-a]azocin-6-yl)carbamoyl)benzo [b]thiophen-5-yl)methyl)(phenoxy)phosphoryl)-L-alaninate], the IC50 is < 100 nM. `CCCOC(=O)[C@H](C)NP(=O)(Oc1c(C)cccc1C)[C@H](F)c1ccc2sc(C(=O)N[C@H]3CCC[C@H]4CC[C@@H](C(=O)N5C[C@@H](c6cccnc6)CC56CC6)N4C3=O)cc2c1` (stereo partly drawn) [Compound 359, propyl ((2,6-dimethylphenoxy) ((S)-fluoro(2-(((3S,6S,9aS)-5-oxo-3-((R)-6-(pyridin-3-yl)-4-azaspiro[2.4]heptane-4-carbonyl)octahydro-1H-pyrrolo[1,2-a]azepin-6-yl)carbamoyl)benzo [b]thiophen-5-yl)methyl)phosphoryl)-L-alaninate]: the IC50 was < 100 nM.
